# According to US10138292B2, “Cell culture medium” (BIOLAMINA AB, priority 2010, dated 2018):
# What was measured:
# [1] = system: Oct4 and Nanog mRNA; test: Real-time quantitative RT-PCR of pluripotency markers (Example 1); assay type: cell-based, human; conditions: after several passages
# Procedure: Total RNA was isolated and cDNA was synthesized as described in Rodin et al., Nature Biotechnol., vol. 28, pp. 611-615 (2010). Real-time quantitative RT-PCR Taqman assays were performed using the Applied Biosystems 7300 Real-Time PCR System. All reactions were done in quadruplicate with predeveloped gene expression assay mix (Applied Biosystems) containing primers and a probe for the mRNA of interest. Additional reactions for each experiment included predeveloped gene expression assay mix for GAPDH, used to normalize the RNA input. All data were analyzed with 7300 System SDS Software version 1.4.
# [2] = system: phosphorylated myosin light chain (P-MLC); test: Western blot of phosphorylated myosin light chain; assay type: cell-based, human; conditions: one and six hours after plating
# Procedure: HS 181 cells were trypsinized into single cell suspension as described above. For inhibition experiments, the cells were kept in O3 medium with blocking antibodies or pathway inhibitors for 30 minutes and then 450K cells were plated on 35 mm dishes precoated with the appropriate matrix coating. For other experiments, same number of cells was plated directly after trypsinization. […] After two washings in ice-cold PBS, the plates with cells were snap frozen in liquid nitrogen and stored at −80° C. To prepare samples for western blots and ELISA, the plates were slowly thawed and kept on ice with 100-150 μl of lysis buffer (50 mM Tris-HCl, pH7.5, 150 mM NaCl, 0.5% deoxycholate, 0.5% SDS, 1% Triton X-100, 1% Igepal, Complete™ (Roche) and Phospho-Stop™ (Roche)) on top. Then, the cells were scraped, pipetted and sheared through a 27G ¾″ needle. After that, the cell pellets were clarified by centrifugation at 16,100 rcf for 15 minutes at 4° C. For western blots, 4-12% gradient gels were used for SDS electrophoresis and the proteins were transferred to PVDF membranes. The membrane was hybridized with the antibody of interest according to the manufacturer's instructions. Chemoluminescent HRP-substrate from Amersham Biosciences was used for visualization. For the densitometry analysis the films were scanned at 2,400 dpi and analyzed by the Chemilmager5500 program (1D-Multi Line densitometry mode). […]
# [3] = molecular target: Integrin α6β1 (Homo sapiens, UniProt P05556+P23229); conditions: cited from earlier work
# [4] = system: hES cells; test: Cell adhesion assay, 1 hour (Example 2); assay type: cell-based, human; conditions: not shown
# Procedure: Tissue cell culture plates were coated overnight at 4° C. with sterile solutions of the ECM proteins, such as human recombinant LN-521, all at a concentration of 30 μg/ml (5 μg/cm^2). Control plates were coated with Matrigel according to the STEMCELL Technologies' instructions. Prior to use, dishes were pre-warmed in an incubator for one hour after which prewarmed O3 medium was added without additional washing of the dish. After applying a fresh LN-521 solution to a new dish, the remaining LN-521 solution could be used at least once more. All the adhesion, survival, and inhibition of survival experiments were carried out using fresh coating materials.
# Briefly, 96-well plates were coated by extracellular matrix proteins as described above and blocked by O3 medium containing bovine serum albumin. The ES cells were plated at cell density of 50,000 cells/cm^2 onto extracellular matrix-coated plates and left to adhere for 1 hour in a cell incubator. After that the plates were washed 3 times with the medium to remove the non-adherent cells, and then the adherent cells were fixed for 20 minutes by 5% glutaraldehyde, stained by 0.1% Crystal Violet. (Kebo Lab, Spanga, Sweden, http://www.kebolab.se). After one hour and 3 washes with water, Crystal Violet was extracted with 10% acetic acid and quantified by measuring optical density at 570 nm. All the experiments were performed in quadruplicate.
# Sequence of Integrin α6β1 (P23229 24-1130): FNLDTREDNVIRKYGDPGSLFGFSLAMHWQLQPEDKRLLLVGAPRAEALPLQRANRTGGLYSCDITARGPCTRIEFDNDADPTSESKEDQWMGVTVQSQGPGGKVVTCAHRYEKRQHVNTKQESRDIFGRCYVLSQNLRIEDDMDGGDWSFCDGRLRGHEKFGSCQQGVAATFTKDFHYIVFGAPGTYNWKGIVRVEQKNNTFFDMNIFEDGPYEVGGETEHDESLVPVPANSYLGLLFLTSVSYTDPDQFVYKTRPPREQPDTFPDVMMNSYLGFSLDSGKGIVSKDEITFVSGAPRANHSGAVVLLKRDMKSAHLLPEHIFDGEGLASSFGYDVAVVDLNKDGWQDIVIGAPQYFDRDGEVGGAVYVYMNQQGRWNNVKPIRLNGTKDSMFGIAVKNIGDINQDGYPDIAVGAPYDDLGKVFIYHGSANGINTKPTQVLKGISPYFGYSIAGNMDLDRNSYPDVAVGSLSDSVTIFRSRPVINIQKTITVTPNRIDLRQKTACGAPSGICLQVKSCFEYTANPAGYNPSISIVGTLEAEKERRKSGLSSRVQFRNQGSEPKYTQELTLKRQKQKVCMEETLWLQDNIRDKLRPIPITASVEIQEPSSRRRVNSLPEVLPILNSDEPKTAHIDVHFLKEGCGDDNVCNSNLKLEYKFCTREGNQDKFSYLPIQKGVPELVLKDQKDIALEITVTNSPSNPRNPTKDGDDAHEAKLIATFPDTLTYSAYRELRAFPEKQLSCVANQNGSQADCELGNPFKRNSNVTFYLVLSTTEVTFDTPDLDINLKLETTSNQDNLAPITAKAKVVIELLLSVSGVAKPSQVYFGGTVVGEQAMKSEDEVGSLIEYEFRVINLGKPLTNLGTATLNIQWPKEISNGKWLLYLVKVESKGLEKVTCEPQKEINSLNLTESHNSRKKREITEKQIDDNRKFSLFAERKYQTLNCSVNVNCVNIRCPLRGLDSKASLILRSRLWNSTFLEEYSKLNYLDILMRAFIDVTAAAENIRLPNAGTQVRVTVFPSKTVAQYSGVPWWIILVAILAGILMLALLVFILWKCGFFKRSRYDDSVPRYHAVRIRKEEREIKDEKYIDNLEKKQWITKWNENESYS
# Sequence of Integrin α6β1 (P05556 21-798): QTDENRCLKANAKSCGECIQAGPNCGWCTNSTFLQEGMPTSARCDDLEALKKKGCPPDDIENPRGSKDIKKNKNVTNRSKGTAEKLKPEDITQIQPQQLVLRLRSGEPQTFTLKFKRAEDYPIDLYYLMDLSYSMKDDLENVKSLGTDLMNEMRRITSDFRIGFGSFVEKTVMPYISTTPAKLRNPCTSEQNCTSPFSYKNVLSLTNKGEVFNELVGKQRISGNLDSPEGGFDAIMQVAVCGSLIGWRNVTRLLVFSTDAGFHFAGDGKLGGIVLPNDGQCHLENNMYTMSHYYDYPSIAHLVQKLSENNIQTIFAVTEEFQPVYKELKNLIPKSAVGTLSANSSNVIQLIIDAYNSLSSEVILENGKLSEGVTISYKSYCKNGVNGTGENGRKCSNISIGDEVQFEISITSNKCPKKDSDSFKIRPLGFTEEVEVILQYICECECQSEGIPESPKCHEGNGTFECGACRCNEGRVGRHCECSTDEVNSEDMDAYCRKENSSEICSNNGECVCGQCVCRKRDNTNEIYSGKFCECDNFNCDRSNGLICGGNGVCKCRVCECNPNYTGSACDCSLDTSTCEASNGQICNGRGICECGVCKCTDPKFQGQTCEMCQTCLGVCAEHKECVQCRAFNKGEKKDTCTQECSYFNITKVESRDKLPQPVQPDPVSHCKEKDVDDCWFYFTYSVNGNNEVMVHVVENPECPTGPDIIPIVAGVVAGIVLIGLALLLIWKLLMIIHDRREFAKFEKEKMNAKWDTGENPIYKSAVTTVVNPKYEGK
substance,measurement,setting,value
"LN-521: protein formed by joining α5, β2 and γ1 laminin chains; human recombinant, produced in HEK293 cells",number of mRNA transcripts of Oct4 and Nanog compared with Matrigel,[1],higher numbers of transcripts
same,phosphorylation of MLC compared with cells on Matrigel and LN-111,[2],even higher
same,binding affinity of integrin α6β1 compared with LN-111,[3],higher
same,spreading of the cells after one hour compared with Matrigel or LN-111,[4],clearly better
